Measurements from PMC7377239, “Cardiovascular Effects of Polychlorinated Biphenyls and Their Major Metabolites” (Environmental Health Perspectives, 2020).
Where two headings read alike, the source gives them in different places.

Columns and labels:
[1] = tested on: iCell cardiomyocytes (human iPSC-derived cardiomyocytes); test: High-content imaging of cytotoxicity and mitochondrial integrity in iPSC-CMs; type: cell-based; conditions: Homo sapiens, Cardiomyocyte; for viability at 0.01 µM / activity at 0.01 µM / viability at 0.1 µM / activity at 0.1 µM / viability at 1 µM / activity at 1 µM / viability at 10 µM / activity at 10 µM / viability at 100 µM / activity at 100 µM: 0.00 µM = 100.00; for viability at 0.1 µM / activity at 0.1 µM: 0.10 µM
Summary of the method: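 This assay measured cytotoxicity and mitochondrial integrity in iPSC cardiomyocytes held in 40μL maintenance medium. After compound exposure, a 2× staining solution with Hoechst 33342 (4μg/mL) and MitoTracker™ Orange (0.4μM) was applied for 15 min at 37°C. Cells were washed, fixed with 3.7% formaldehyde, imaged on DAPI and Cy3 channels, and scored in MetaXpress®.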

HUVECs = test: High-content imaging cytotoxicity in HUVECs, 24 h; type: cell-based, human; conditions: Homo sapiens, HUVEC, 24 h, HUVECs; for viability at 0.01 µM / activity at 0.01 µM / viability at 0.1 µM / activity at 0.1 µM / viability at 1 µM / activity at 1 µM / viability at 10 µM / activity at 10 µM / viability at 100 µM / activity at 100 µM: 0.00 µM = 100.00; for viability at 0.1 µM / activity at 0.1 µM: 0.10 µM; for minimal effective concentration: top concentration 100.00 µM
Summary of the method: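 Confluent HUVEC monolayers, passages 1–5, received test chemicals for 24 h. Cytotoxicity was scored from triple-stain high-content images, with PODs defined by a one-SD deviation from 0.5% DMSO vehicle controls.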

[2] = 1.5 h, 90min, read-out: cm.cam.90min
[3] = 1.5 h, 90min, read-out: cm.mii.90min
[4] = 1.5 h, 90min, read-out: cm.mito.90min
[5] = 1.5 h, 90min, read-out: cm.tc.90min
[6] = 24 h, 24hrs, read-out: cm.cam.24hrs
[7] = 24 h, 24hrs, read-out: cm.mii.24hrs
[8] = 24 h, 24hrs, read-out: cm.mito.24hrs
[9] = 24 h, 24hrs, read-out: cm.tc.24hrs
[10] = 24 hr, read-out: huvec.cyto.24hr
[11] = 24 hr, read-out: huvec.mito.24hr
[12] = 24 hr, read-out: huvec.mitoint.24hr
[13] = 24 hr, read-out: huvec.nma.24hr
[14] = 24 hrs, read-out: huvec.tc.24hrs

## Oc1cc(Cl)c(-c2cc(Cl)ccc2Cl)cc1Cl [4-OH PCB52]
[1]; [2]
  viability at 0.01 µM: 89.4%
  viability at 0.1 µM: 103%
  viability at 1 µM: 97.9%
  viability at 10 µM: 95.1%
  viability at 100 µM: 0%
[1]; [3]
  activity at 0.01 µM: 103%
  activity at 0.1 µM: 101%
  activity at 1 µM: 97.3%
  activity at 10 µM: 116%
  activity at 100 µM: 7.54%
[1]; [4]
  activity at 0.01 µM: 87.5%
  activity at 0.1 µM: 103%
  activity at 1 µM: 97.9%
  activity at 10 µM: 94.7%
  activity at 100 µM: 0.0231%
[1]; [5]
  viability at 0.01 µM: 89.4%
  viability at 0.1 µM: 104%
  viability at 1 µM: 98.1%
  viability at 10 µM: 94.9%
  viability at 100 µM: 0.0461%
[1]; 1.5 h, 90min, read-out: cm.cam.90min POD
  minimal effective concentration: 8.86 µM
[1]; 1.5 h, 90min, read-out: cm.mii.90min POD
  minimal effective concentration: 45.7 µM
[1]; 1.5 h, 90min, read-out: cm.mito.90min POD
  minimal effective concentration: 8.61 µM
[1]; 1.5 h, 90min, read-out: cm.tc.90min POD
  minimal effective concentration: 8.75 µM
[1]; [6]
  viability at 0.01 µM: 99.2%
  viability at 0.1 µM: 102%
  viability at 1 µM: 96.1%
  viability at 10 µM: 101%
  viability at 100 µM: 10.2%
[1]; [7]
  activity at 0.01 µM: 98.8%
  activity at 0.1 µM: 93.3%
  activity at 1 µM: 102%
  activity at 10 µM: 88.3%
  activity at 100 µM: 193%
[1]; [8]
  activity at 0.01 µM: 99.4%
  activity at 0.1 µM: 104%
  activity at 1 µM: 94.1%
  activity at 10 µM: 102%
  activity at 100 µM: 20.3%
[1]; [9]
  viability at 0.01 µM: 99.5%
  viability at 0.1 µM: 103%
  viability at 1 µM: 96%
  viability at 10 µM: 101%
  viability at 100 µM: 49.7%
[1]; 24 h, read-out: cm.cam.24hrs POD
  minimal effective concentration: 32.7 µM
[1]; 24 h, read-out: cm.mii.24hrs POD
  minimal effective concentration: 65.1 µM
[1]; 24 h, read-out: cm.mito.24hrs POD
  minimal effective concentration: 36.7 µM
[1]; 24 h, read-out: cm.tc.24hrs POD
  minimal effective concentration: 41.4 µM
HUVECs; [10]
  viability at 0.01 µM: 94.4%
  viability at 0.1 µM: 120%
  viability at 1 µM: 93.9%
  viability at 10 µM: 46.9%
  viability at 100 µM: 72%
HUVECs; [11]
  activity at 0.01 µM: 93.5%
  activity at 0.1 µM: 118%
  activity at 1 µM: 93.9%
  activity at 10 µM: 33.2%
  activity at 100 µM: 0.65%
HUVECs; [12]
  activity at 0.01 µM: 103%
  activity at 0.1 µM: 104%
  activity at 1 µM: 111%
  activity at 10 µM: 15.3%
  activity at 100 µM: 5.52%
HUVECs; [13]
  activity at 0.01 µM: 98.9%
  activity at 0.1 µM: 94.5%
  activity at 1 µM: 98%
  activity at 10 µM: 61.6%
  activity at 100 µM: 119%
HUVECs; 24 hr, read-out: huvec.cyto.24hr POD
  minimal effective concentration: 1 µM
HUVECs; 24 hr, read-out: huvec.mito.24hr POD
  minimal effective concentration: 1.1 µM
HUVECs; 24 hr, read-out: huvec.mitoint.24hr POD
  minimal effective concentration: 2.32 µM
HUVECs; 24 hr, read-out: huvec.nma.24hr POD
  minimal effective concentration: 100 µM
HUVECs; [14]
  viability at 0.01 µM: 94.4%
  viability at 0.1 µM: 120%
  viability at 1 µM: 93.9%
  viability at 10 µM: 46.9%
  viability at 100 µM: 77.5%
HUVECs; 24 hrs, read-out: huvec.tc.24hrs POD
  minimal effective concentration: 1 µM
